≈ marks a conversion by molar mass, not a printed value. Read-outs that look alike come from different tables or passages of the source.
Key:
[1] = test system: Mycobacterium tuberculosis H37Ra ITM-M006710 (ATCC 9431); assay: Microdilution broth, modified Microplate Alamar Blue Assay, whole cell growth inhibition; assay type: cell-based; settings: Mycobacterium tuberculosis, read-out: MIC Mtb H37Ra
[2] = test system: Mycobacterium aurum DSM 43999 (ATCC 23366); assay: as above; assay type: cell-based; settings: Mycolicibacterium aurum, read-out: MIC Mycobacterium aurum
[3] = test system: Mycobacterium smegmatis DSM 43465 (ATCC 607); assay: as above; assay type: cell-based; settings: Mycolicibacterium smegmatis, read-out: MIC Mycobacterium smegmatis
[4] = test system: M. kansasii CNCTC My 235/80 (ATCC 12478); assay: 96 well plate microdilution broth method with Alamar Blue; assay type: cell-based; settings: Mycobacterium kansasii
[5] = test system: M. avium ssp. avium CNCTC My 80/72 (ATCC 15769); assay: as above; assay type: cell-based; settings: Mycobacterium avium
HepG2 cells = assay: HepG2 cytotoxicity, CellTiter 96 (MTS) assay; assay type: cell-based, human; settings: for IC50: Homo sapiens, read-out: HepG2 IC50; for SI, selectivity index: IC50 (HepG2)/MIC against Mtb H37Ra (in µM)
[6] = test system: Staphylococcus aureus spp.aureus ATCC 29213, CCM 4223; assay: Antibacterial microdilution broth method (EUCAST); assay type: cell-based; settings: read-out: MIC SA
[7] = test system: Staphylococcus aureus methicillin resistant ATCC 43300, CCM 4750; assay: microbe, parasite or virus in culture; assay type: cell-based; settings: ATCC 43300 / CCM 4750 / MRSA, read-out: MIC MRSA
[8] = test system: Staphylococcus epidermidis ATCC 12228, CCM 4418; assay: Antibacterial microdilution broth method (EUCAST); assay type: cell-based; settings: read-out: MIC SE
[9] = test system: Enterococcus faecalis ATCC 29212, CCM 4224; assay: Antibacterial microdilution broth method (EUCAST); assay type: cell-based; settings: read-out: MIC EF
[10] = test system: Escherichia coli ATCC 25922, CCM 3954; assay: Antibacterial microdilution broth method (EUCAST); assay type: cell-based; settings: read-out: MIC EC
[11] = test system: Acinetobacter baumanii ATCC 19606, DSM 30007; assay: Antibacterial microdilution broth method (EUCAST); assay type: cell-based; settings: Acinetobacter baumannii
[12] = test system: Pseudomonas aeruginosa ATCC 27853, CCM 3955; assay: Antibacterial microdilution broth method (EUCAST); assay type: cell-based; settings: read-out: MIC PA
[13] = test system: Candida albicans ATCC 24433, CCM 8320; assay: Antifungal microdilution broth method (EUCAST); assay type: cell-based
[14] = test system: Candida krusei ATCC 6258, CCM 8271; assay: Antifungal microdilution broth method (EUCAST); assay type: cell-based; settings: Pichia kudriavzevii
[15] = test system: Candida parapsilosis ATCC 22019, CCM 8260; assay: Antifungal microdilution broth method (EUCAST); assay type: cell-based; settings: Lodderomyces parapsilosis
[16] = test system: Candida tropicalis ATCC 750, CCM 8264; assay: Antifungal microdilution broth method (EUCAST); assay type: cell-based; settings: read-out: MIC CT
[17] = test system: Aspergillus fumigatus ATCC 204305; assay: Antifungal microdilution broth method (EUCAST); assay type: cell-based; settings: read-out: MIC AF
[18] = test system: Aspergillus flavus CCM 8363; assay: Antifungal microdilution broth method (EUCAST); assay type: cell-based; settings: read-out: MIC AFla
[19] = test system: Absidia corymbifera CCM 8077 (Lichtheimia corymbifera); assay: Antifungal microdilution broth method (EUCAST); assay type: cell-based; settings: read-out: MIC AC
[20] = test system: Trichophyton interdigitale ATCC 9533, CCM 8377; assay: Antifungal microdilution broth method (EUCAST); assay type: cell-based; settings: read-out: MIC TI
[21] = test system: Klebsiella pneumoniae ATCC 10031, CCM 4415; assay: Antibacterial microdilution broth method (EUCAST)
[22] = assay type: physicochemical
Experimental: As a complementary test, final compounds were tested for in vitro activity against selected fungal and bacterial pathogens of clinical importance. The microdilution broth method was performed according to The European Committee on Antimicrobial Susceptibility Testing (EUCAST) instructions with slight modifications. The minimum inhibitory concentration was expressed in µM. Not all compounds were evaluated due to the fact of a problem with solubility which occurred for 18 samples. […] See Supplementary Materials for the list of tested strains, methodology, and full results.

[23] = in vitro, Middlebrook 7H9 broth, resazurin
[24] = HepG2, 24 h incubation, > means higher concentration not reproducible due to precipitation

CCCCCNc1cnc(C(=O)Nc2ccc(O)cc2)cn1 [Compound 3c, N-(4-hydroxyphenyl)-5-(pentylamino)pyrazine-2-carboxamide]
MIC ([1]; MIC converted to µM): 13 µM | MIC [1, 23]: 3.91 µg/mL | MIC [2]: ≥ 500 µg/mL | MIC [3]: 31.2 µg/mL (≈ 104 µM) | MIC ([4]; ATCC12478, pH 6.6, read-out: MIC Mycobacterium kansasii): 12.5 µg/mL (≈ 41.6 µM) | MIC ([5]; ATCC15769, pH 6.6, read-out: MIC Mycobacterium avium): 50 µg/mL (≈ 166 µM) | HepG2 IC50 (HepG2 cells; 24 h incubation, > means higher concentration not reproducible due to precipitation): above the tested range of concentrations | IC50 (HepG2 cells; HepG2, 24 h): > 500 µM | SI, selectivity index (HepG2 cells): >38.4 | MIC ([6]; 24 h): > 125 µM | MIC ([6]; 48 h): > 125 µM | MIC ([7]; 24 h): > 125 µM | MIC ([7]; 48 h): > 125 µM | MIC ([8]; 24 h): > 125 µM | MIC ([8]; 48 h): > 125 µM | MIC ([9]; 24 h): > 125 µM | MIC ([9]; 48 h): > 125 µM | MIC ([10]; 24 h): > 125 µM | MIC ([10]; 48 h): > 125 µM | MIC ([11]; 24h): > 125 µM | MIC ([11]; 48h): > 125 µM | MIC ([12]; 72 h): > 125 µM | MIC ([12]; 120 h): > 125 µM | MIC ([13]; 24 h, read-out: MIC CA): 62.5 µM (≈ 18.8 µg/mL) | MIC ([13]; 48 h, read-out: MIC CA): 62.5 µM (≈ 18.8 µg/mL) | MIC ([13]; read-out: MIC CA (Candida albicans)): 62.5 µM (≈ 18.8 µg/mL) | MIC ([14]; 24 h, read-out: MIC CK): > 125 µM | MIC ([14]; 48 h, read-out: MIC CK): > 125 µM | MIC ([14]; read-out: MIC CK (Candida krusei)): > 125 µM | MIC ([15]; 24 h, read-out: MIC CP): > 125 µM | MIC ([15]; 48 h, read-out: MIC CP): > 125 µM | MIC ([15]; read-out: MIC CP (Candida parapsilosis)): > 125 µM | MIC ([16]; 24 h): > 125 µM | MIC ([16]; 48 h): > 125 µM | MIC ([17]; ATCC204305, 24 h): > 125 µM | MIC ([17]; ATCC204305, 48 h): > 125 µM | MIC ([18]; CCM8363, 24 h): > 125 µM | MIC ([18]; CCM8363, 48 h): > 125 µM | MIC ([19]; CCM8077, 24 h): > 125 µM | MIC ([19]; CCM8077, 48 h): > 125 µM | MIC ([20]; 72 h): > 125 µM | MIC ([20]; 120 h): > 125 µM | melting point: 162.6 to 166.8 °C | MIC KP ([21]; 24h): > 125 µM | MIC KP ([21]; 48h): > 125 µM

CCCNc1cnc(C(=O)Nc2ccc(C)cc2)cn1 [Compound 4a, 5-(Propylamino)-N-(p-tolyl)pyrazine-2-carboxamide]
MIC [1, 23]: 15.6 µg/mL | MIC [2, 23]: ≥ 500 µg/mL | MIC [3, 23]: 31.2 µg/mL (≈ 116 µM) | IC50 (HepG2 cells; [24]): > 100 µM | SI, selectivity index (HepG2 cells): >1.73 | Solubility problem in antibacterial/antifungal testing [22]: precipitated in both growth media | melting point: 168 to 169 °C

CCCCNc1cnc(C(=O)Nc2ccc(CC)cc2)cn1 [Compound 5b, 5-(Butylamino)pyrazine-N-(4-ethylphenyl)-2-carboxamide]
MIC [1, 23]: ≥ 500 µg/mL | MIC [2, 23]: ≥ 500 µg/mL | MIC [3, 23]: ≥ 500 µg/mL | IC50 (HepG2 cells; [24]): > 50 µM | Solubility problem in antibacterial/antifungal testing [22]: precipitated in both growth media | melting point: 133.8 to 134.8 °C

CCCCCNc1cnc(C(=O)Nc2ccc(CC)cc2)cn1 [Compound 5c, N-(4-ethylphenyl)-5-(pentylamino)pyrazine-2-carboxamide]
MIC [1, 23]: ≥ 500 µg/mL | MIC [2, 23]: ≥ 500 µg/mL | MIC [3, 23]: ≥ 500 µg/mL | IC50 (HepG2 cells; [24]): > 25 µM | Solubility problem in antibacterial/antifungal testing [22]: precipitated in both growth media | melting point: 136.1 to 137.1 °C

CCCCCCCCNc1cnc(C(=O)Nc2ccc(CC)cc2)cn1 [Compound 5f, N-(4-ethylphenyl)-5-(octylamino)pyrazine-2-carboxamide]
MIC [1, 23]: ≥ 250 µg/mL | MIC [2, 23]: ≥ 250 µg/mL | MIC [3, 23]: ≥ 250 µg/mL | IC50 (HepG2 cells; [24]): > 10 µM | Solubility problem in antibacterial/antifungal testing [22]: precipitated in both growth media | melting point: 131 to 132 °C

CCCCCCCCNc1cnc(C(=O)Nc2ccc(Cl)cc2O)cn1 [Compound 6f, N-(4-chloro-2-hydroxyphenyl)-5-(octylamino)pyrazine-2-carboxamide]
MIC [1, 23]: ≥ 500 µg/mL | MIC [2, 23]: ≥ 500 µg/mL | MIC [3, 23]: 7.81 µg/mL (≈ 20.7 µM) | IC50 (HepG2 cells; [24]): > 50 µM | Solubility problem in antibacterial/antifungal testing [22]: did not dissolve in DMSO | melting point: 196.9 to 197.9 °C

CCCNc1cnc(C(=O)Nc2cc(Cl)ccc2O)cn1 [Compound 7a, N-(5-chloro-2-hydroxyphenyl)-5-(propylamino)pyrazine-2-carboxamide]
MIC [1, 23]: ≥ 500 µg/mL | MIC [2, 23]: 250 µg/mL (≈ 815 µM) | MIC [3, 23]: < 3.91 µg/mL | IC50 (HepG2 cells; [24]): > 25 µM | Solubility problem in antibacterial/antifungal testing [22]: did not dissolve in DMSO | melting point: 254 to 259 °C

CCCCNc1cnc(C(=O)Nc2cc(Cl)ccc2O)cn1 [Compound 7b, 5-(Butylamino)pyrazine-N-(5-chloro-2-hydroxyphenyl)-2-carboxamide]
MIC [1, 23]: ≥ 500 µg/mL | MIC [2, 23]: ≥ 500 µg/mL | MIC [3, 23]: 3.91 µg/mL (≈ 12.2 µM) | IC50 (HepG2 cells; [24]): > 25 µM | Solubility problem in antibacterial/antifungal testing [22]: did not dissolve in DMSO | melting point: 257.9 to 262.1 °C

CCCCCNc1cnc(C(=O)Nc2cc(Cl)ccc2O)cn1 [Compound 7c, N-(5-chloro-2-hydroxyphenyl)-5-(pentylamino)pyrazine-2-carboxamide]
MIC [1, 23]: ≥ 500 µg/mL | MIC [2, 23]: ≥ 500 µg/mL | MIC [3, 23]: ≥ 500 µg/mL | IC50 (HepG2 cells; [24]): > 25 µM | Solubility problem in antibacterial/antifungal testing [22]: did not dissolve in DMSO | melting point: 250.3 to 255.1 °C

CCCCCCNc1cnc(C(=O)Nc2cc(Cl)ccc2O)cn1 [Compound 7d, N-(5-chloro-2-hydroxyphenyl)-5-(hexylamino)pyrazine-2-carboxamide]
MIC [1, 23]: ≥ 500 µg/mL | MIC [2, 23]: ≥ 500 µg/mL | MIC [3, 23]: ≥ 500 µg/mL | IC50 (HepG2 cells; [24]): > 25 µM | Solubility problem in antibacterial/antifungal testing [22]: did not dissolve in DMSO | melting point: 249.3 to 251.9 °C

CCCCCCCNc1cnc(C(=O)Nc2cc(Cl)ccc2O)cn1 [Compound 7e, N-(5-chloro-2-hydroxyphenyl)-5-(heptylamino)pyrazine-2-carboxamide]
MIC [1]: ≥ 500 µg/mL | MIC [2]: ≥ 500 µg/mL | MIC [3]: 31.2 µg/mL (≈ 86.1 µM) | IC50 (HepG2 cells; [24]): > 10 µM | Solubility problem in antibacterial/antifungal testing [22]: did not dissolve in DMSO | melting point: 243.6 to 246 °C

CCCCCCCCNc1cnc(C(=O)Nc2cc(Cl)ccc2O)cn1 [Compound 7f, N-(5-chloro-2-hydroxyphenyl)-5-(octylamino)pyrazine-2-carboxamide]
MIC [1, 23]: ≥ 500 µg/mL | MIC [2, 23]: ≥ 500 µg/mL | MIC [3, 23]: 250 µg/mL (≈ 663 µM) | IC50 (HepG2 cells; [24]): > 50 µM | Solubility problem in antibacterial/antifungal testing [22]: did not dissolve in DMSO | melting point: 239.7 to 242.4 °C

NNC(=O)c1ccncc1 [INH, isoniazid, reference compound]
MIC [1, 23]: 0.125 to 0.25 µg/mL | MIC [2, 23]: 3.91 to 7.81 µg/mL (≈ 28.5 to 56.9 µM) | MIC [3, 23]: 7.81 to 15.6 µg/mL (≈ 56.9 to 114 µM) | MIC ([4]; ATCC12478, Middlebrook 7H9 broth pH 6.6, read-out: MIC Mycobacterium kansasii): 25 µg/mL (≈ 182 µM) | MIC ([5]; ATCC15769, Middlebrook 7H9 broth pH 6.6, read-out: MIC Mycobacterium avium): 25 µg/mL (≈ 182 µM)
